Measured values reported in ChEMBL document CHEMBL1201862, “PubChem BioAssay data set” (2004).
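These data come from cells grown in 96-well plates and exposed to compound for 48 hours at five concentrations. Abbreviation: GI50, concentration required for 50% inhibition of growth.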 Active and inactive are the calls of the source. No stated cut-off is given here; in the data, active = GI50 up to about 1.1 µM and inactive = higher.

How the values were obtained:
Assay in all cases: NCI anticancer screen, dose series, 48 h
[1] = test system: ACHN
[2] = test system: CCRF-CEM
[3] = test system: COLO 205
[4] = test system: EKVX
[5] = test system: HCT-116
[6] = test system: HL-60
[7] = test system: MOLT-4
[8] = test system: NCI-H23
[9] = test system: OVCAR-3
[10] = test system: SF-539
[11] = test system: SNB-75
[12] = test system: SNB-78
[13] = test system: SR
[14] = test system: U-251
[15] = test system: UO-31
[16] = test system: SNB-19
[17] = test system: DU-145
[18] = test system: T47D

SMILES | GI50 [1] | GI50 [2] | GI50 [3] | GI50 [4] | GI50 [5] | GI50 [6] | GI50 [7] | GI50 [8] | GI50 [9] | GI50 [10] | GI50 [11] | GI50 [12] | GI50 [13] | GI50 [14] | GI50 [15] | GI50 [16] | GI50 [17] | GI50 [18]
CC1=C(Cl)C=CP(=O)(OC(C)C)C1 (configuration not stated) | > 100 µM (inactive) | 37.5 µM (inactive) | > 100 µM (inactive) | > 100 µM (inactive) | 37.2 µM (inactive) | 52 µM (inactive) | 40.7 µM (inactive) | > 100 µM (inactive) | > 100 µM (inactive) | > 100 µM (inactive) | 0.39 µM (active) | > 100 µM (inactive) | 46.2 µM (inactive) | > 100 µM (inactive) | > 100 µM (inactive) |  |  | 
O=c1c2cccnc2ncn1CCCN1CCCCC1 | > 100 µM (inactive) | > 100 µM (inactive) | > 100 µM (inactive) | > 100 µM (inactive) | > 100 µM (inactive) |  | > 100 µM (inactive) | > 100 µM (inactive) | > 100 µM (inactive) | > 100 µM (inactive) | > 100 µM (inactive) | > 100 µM (inactive) | > 100 µM (inactive) | > 100 µM (inactive) | > 100 µM (inactive) | > 100 µM (inactive) |  | 
C/C(CCN(C)C)=N\OC(=O)c1ccccc1 | > 100 µM (inactive) | > 100 µM (inactive) | > 100 µM (inactive) | > 100 µM (inactive) | > 100 µM (inactive) | > 100 µM (inactive) | > 100 µM (inactive) | > 100 µM (inactive) | > 100 µM (inactive) | > 100 µM (inactive) | 50.8 µM (inactive) | > 100 µM (inactive) | > 100 µM (inactive) | > 100 µM (inactive) | > 100 µM (inactive) | > 100 µM (inactive) |  | 
COC(OC)c1cc2c(cc1C=O)OCO2 | > 100 µM (inactive) | > 100 µM (inactive) |  | > 100 µM (inactive) | > 100 µM (inactive) | 47.2 µM (inactive) | > 100 µM (inactive) | > 100 µM (inactive) | 75.5 µM (inactive) | > 100 µM (inactive) | 21.2 µM (inactive) | > 100 µM (inactive) | > 100 µM (inactive) | > 100 µM (inactive) | 45.3 µM (inactive) | > 100 µM (inactive) |  | 
CCC(C)n1c(C)nc2c1C(=O)c1ccccc1C2=O (configuration not stated) | 46.9 µM (inactive) | 37.2 µM (inactive) | 43.5 µM (inactive) | 96.8 µM (inactive) | 31.6 µM (inactive) | 14.5 µM (inactive) | 28.1 µM (inactive) | 33.2 µM (inactive) | 32.5 µM (inactive) | 32.7 µM (inactive) | 42.8 µM (inactive) | > 100 µM (inactive) | 47.5 µM (inactive) | 44.8 µM (inactive) | 37.8 µM (inactive) | 96.6 µM (inactive) |  | 
Cc1coc2c1C(=O)C(=O)c1ccccc1-2 |  | 2.22 µM (inactive) | 1.5 µM (inactive) |  | 0.301 µM (active) |  | 2.21 µM (inactive) | 1.92 µM (inactive) | 1.06 µM (active) | 1.52 µM (inactive) | 1.72 µM (inactive) | 1.73 µM (inactive) | 1.38 µM (inactive) | 1.61 µM (inactive) | 3.1 µM (inactive) |  |  | 
COC(=O)C1=CC(=O)[C@@H]2CCCC[C@H]12 | > 100 µM (inactive) | > 100 µM (inactive) | > 100 µM (inactive) |  | > 100 µM (inactive) | > 100 µM (inactive) | > 100 µM (inactive) |  | > 100 µM (inactive) | > 100 µM (inactive) | > 100 µM (inactive) | > 100 µM (inactive) | > 100 µM (inactive) | > 100 µM (inactive) | > 100 µM (inactive) | > 100 µM (inactive) |  | 
O=C1CCC2(c3ccc(Cl)cc3)Nc3ccccc3N12 (configuration not stated) | 60.4 µM (inactive) |  | > 100 µM (inactive) | > 100 µM (inactive) | 57 µM (inactive) | 35.5 µM (inactive) | 30.3 µM (inactive) | 42.6 µM (inactive) |  | > 100 µM (inactive) | 19.3 µM (inactive) | > 100 µM (inactive) | 34.4 µM (inactive) | > 100 µM (inactive) | 49.7 µM (inactive) | > 100 µM (inactive) |  | 
O=C(NC(Cc1ccccc1)C(=O)CCl)OCc1ccccc1 (configuration not stated) | 10.1 µM (inactive) | 2.74 µM (inactive) | 7.16 µM (inactive) |  | 13.6 µM (inactive) | 3.07 µM (inactive) |  | 9.2 µM (inactive) | 5.24 µM (inactive) | 4.76 µM (inactive) | 11.5 µM (inactive) | 24.8 µM (inactive) | 6.24 µM (inactive) | 10.8 µM (inactive) | 12.9 µM (inactive) | 12.3 µM (inactive) |  | 
c1ccc(-c2ccnc3c2ccc2c(-c4ccccc4)ccnc23)cc1 | 1.11 µM (active) | 0.465 µM (active) | 2.98 µM (inactive) | 0.664 µM (active) | 0.555 µM (active) | 0.809 µM (active) | 0.514 µM (active) | 1.85 µM (inactive) | 2.47 µM (inactive) | 2.06 µM (inactive) | 2.92 µM (inactive) | 5.05 µM (inactive) | 0.273 µM (active) | 1.17 µM (inactive) | 0.5 µM (active) | 1.19 µM (inactive) |  | 
O=C1C(=O)N(c2ccc(Cl)c(Cl)c2)C(=O)C(=O)C1c1nc2ccccc2o1 | > 100 µM (inactive) |  | 47.2 µM (inactive) |  | 34.1 µM (inactive) | 22.9 µM (inactive) | 31.7 µM (inactive) | 68.7 µM (inactive) | > 100 µM (inactive) | > 100 µM (inactive) | > 100 µM (inactive) | 66.4 µM (inactive) | 30 µM (inactive) | 33.3 µM (inactive) | > 100 µM (inactive) | 72.9 µM (inactive) |  | 
COCC(=O)[C@]1(O)Cc2c(O)c3c(c(O)c2[C@@H](OC2CC(N)C(O)C(C)O2)C1)C(=O)c1c(OC)cccc1C3=O (some centres not stated) | 0.0703 µM (active) | 0.0153 µM (active) | 0.168 µM (active) | 0.455 µM (active) | 0.0493 µM (active) | 0.0188 µM (active) | 0.014 µM (active) | 0.0536 µM (active) | 0.115 µM (active) | 0.043 µM (active) | 0.0343 µM (active) | 0.278 µM (active) | < 0.0138 µM (active) | 0.0836 µM (active) | 0.0883 µM (active) | 0.0889 µM (active) | 0.0991 µM (active) | 0.106 µM (active)
CN1CCCC2(CCCc3ccccc32)C1 (configuration not stated) | > 100 µM (inactive) | > 100 µM (inactive) | > 100 µM (inactive) | > 100 µM (inactive) | > 100 µM (inactive) | > 100 µM (inactive) | > 100 µM (inactive) | > 100 µM (inactive) | > 100 µM (inactive) | > 100 µM (inactive) | > 100 µM (inactive) | > 100 µM (inactive) | > 100 µM (inactive) | > 100 µM (inactive) | 80.2 µM (inactive) |  |  | 
COc1ccc(-c2onc(-c3c(C)cc(C)cc3C)c2C2=NCCN2)cc1 | 86.3 µM (inactive) | 34 µM (inactive) | 20.4 µM (inactive) | 70 µM (inactive) | 20.4 µM (inactive) | 16.4 µM (inactive) | 39.8 µM (inactive) | > 100 µM (inactive) | > 10 µM (inactive) | 20 µM (inactive) | 84.9 µM (inactive) | 35.2 µM (inactive) | 32.2 µM (inactive) | 18.9 µM (inactive) | 17.1 µM (inactive) | 33.9 µM (inactive) |  | 
COc1cc2c(cc1OC)[C@@H](C(O)c1ccccc1)NCC2 (some centres not stated) | > 100 µM (inactive) | > 100 µM (inactive) | > 100 µM (inactive) | > 100 µM (inactive) | > 100 µM (inactive) | > 100 µM (inactive) | > 100 µM (inactive) | > 100 µM (inactive) | > 100 µM (inactive) | > 100 µM (inactive) | 54.6 µM (inactive) | > 100 µM (inactive) | > 100 µM (inactive) | > 100 µM (inactive) | > 100 µM (inactive) | > 100 µM (inactive) |  | 
COc1ccc(C2C(Cl)C(=O)N2NC(=O)Cc2ccccc2)cc1OC (configuration not stated) | > 100 µM (inactive) | > 100 µM (inactive) | > 100 µM (inactive) | > 100 µM (inactive) | > 100 µM (inactive) | > 100 µM (inactive) | > 100 µM (inactive) | > 100 µM (inactive) | > 100 µM (inactive) |  | > 100 µM (inactive) | > 100 µM (inactive) | > 100 µM (inactive) | > 100 µM (inactive) | > 100 µM (inactive) | > 100 µM (inactive) |  | 
CCCCCCCCCCCCC(=O)CCCCC(=O)O | 26.5 µM (inactive) | 33.7 µM (inactive) | 16.7 µM (inactive) | 33.3 µM (inactive) | 20.6 µM (inactive) | 13.5 µM (inactive) | 14.6 µM (inactive) | 35.2 µM (inactive) | 31.8 µM (inactive) | 17.5 µM (inactive) | 23.4 µM (inactive) | 72.6 µM (inactive) | 19.5 µM (inactive) | 24.4 µM (inactive) | 23.9 µM (inactive) | 54.7 µM (inactive) |  | 
